Measurements published in patent US5686486A, “4-hydroxy-benzopyran-2-ones and 4-hydroxy-cycloalkyl[b]pyran-2-ones useful to treat retroviral infections” (priority 1995, dated 1997).
Like-named read-outs stand apart in the source and are kept apart here.

Target: HIV-1 protease (Human immunodeficiency virus type 1 group M subtype B, UniProt P04585)
Test: biochemical
Settings: for inhibition at 0.123 µM: read-out: HIV-1 Protease % Inhib, dose 0.123 uM; for inhibition at 0.37 µM: read-out: HIV-1 Protease % Inhib, dose 0.370 uM; for IC50: HIV-1 Protease IC50
Protocol: The HIV protease screening assay is based on fluorescently labeled substrate which can be resolved from nonlabeled cleavage product using special beads coated with streptavidin. The substrate is biotinylated at the amino terminal arginine and fluorescently labeled with fluorescein isothiocynate (FITC) at the carboxyl terminal lysine. This assay has been employed to detect novel, nonpeptidic inhibitors of HIV-1 protease. Substrate (20 μl of 0.2 μM), sample (10 μl of desired concentration), and enzyme (10 μl of 0.1 μM) are added to a 96 well pandex plate. The assay is run in 0.1M sodium acetate buffer at pH 5.5 in the presence of 1.0M sodium chloride and 0.05% NP-40 with incubated in the dark for one hour at room temperature. Strepavidin coated polystyrene beads {40 μl of 0.1% (w/v)} are added and the plate is incubated in the dark for an additional half hour. The labeled cleavage product is separated from the unreacted substrate via filtration and is read on the Idexx screen machine. The data are analyzed by appropriate computer algorithms to ascertain percent inhibition values.

[1] = read-out: HIV-1 Protease % Inhib, dose 1.000 uM
[2] = read-out: HIV-1 Protease % Inhib, dose 10.000 uM
[3] = read-out: HIV-1 Protease % Inhib, dose 100.000 uM
[4] = read-out: HIV-1 Protease % Inhib, dose 1.100 uM
[5] = read-out: HIV-1 Protease % Inhib, dose 3.300 uM
[6] = read-out: HIV-1 Protease % Inhib, dose 30.000 uM
[7] = dose 1.100 uM, read-out: HIV-1 Protease % Inhib
[8] = dose 3.300 uM, read-out: HIV-1 Protease % Inhib
[9] = dose 10.000 uM, read-out: HIV-1 Protease % Inhib
[10] = dose 30.000 uM, read-out: HIV-1 Protease % Inhib

O=c1oc2ccccc2c(O)c1C(CC1CCCCC1)c1ccccc1 (stereo not shown) [Example 17, 3-(2-Cyclohexyl-1-phenylethyl)-4-hydroxycoumarin]
inhibition at 1 µM [1]: < 10%
inhibition at 10 µM [2]: 27.6%

CC(C)(C)OC(=O)CC(c1ccccc1)c1c(O)c2ccccc2oc1=O (stereo not drawn) [Example 66, 4-hydroxy-3-[α-tert-butyloxycarbonylmethyl]benzylcoumarin]
inhibition at 1 µM [1]: < 10%
inhibition at 10 µM [2]: < 10%
inhibition at 100 µM [3]: 52.6%

CCC(C)C(NC(=O)c1cccc(C(C)c2c(O)c3ccccc3oc2=O)c1)C(=O)NCc1ccccn1 (stereo not shown) [Example 30, Benzamide, 3-[1-(4-hydroxy-2-oxo-2H-1-benzopyran-3-yl)ethyl]-N-[2-methyl-1-[[(2-pyridinylmethyl)amino]carbonyl]butyl]-]
inhibition at 1 µM [1]: < 10%
inhibition at 10 µM [2]: 65.3%
inhibition at 100 µM [3]: 109%

CCC(Cc1c(O)c2ccccc2oc1=O)c1ccccc1 (stereo not shown) [Example 84, Coumarin, 4-hydroxy-3-(2-phenylbutyl)-]
inhibition at 1 µM [1]: < 10%
inhibition at 10 µM [2]: 30.2%

CCCCC(c1cccc(NS(=O)(=O)c2ccc(C#N)cc2)c1)c1c(O)c2c(oc1=O)CCCCCC2 (stereo not shown) [Example 421, Benzenesulfonamide, 4-cyano-N-[3-[1-(5,6,7,8,9,10-hexahydro-4-hydroxy-2-oxo-2H-cycloocta[b]pyran-3-yl)pentyl]phenyl]-]
inhibition at 0.123 µM: 93.9%
inhibition at 0.37 µM: 104%
inhibition at 1.1 µM [4]: 99.1%
inhibition at 3.3 µM [5]: 97.9%
inhibition at 10 µM [2]: 108%
inhibition at 30 µM [6]: 90%

CC(c1cccc(C(=O)NCC(=O)N2CCOCC2)c1)c1c(O)c2ccccc2oc1=O (stereo not shown) [Example 32, Coumarin, 4-hydroxy-3-[1-[3-[[[[(4-morpholino)carbonyl]methyl]amino]carbonyl]phenyl]ethyl]-]
inhibition at 1 µM [1]: < 10%
inhibition at 10 µM [2]: < 10%
inhibition at 100 µM [3]: 46.5%

CC(c1cccc(C(=O)NCC(=O)NCc2nc3ccccc3[nH]2)c1)c1c(O)c2ccccc2oc1=O (stereo not shown) [Example 33, Coumarin, 3-[1-[3-[[[[[[(2-benzimidazolyl)methyl]amino]carbonyl]methyl]amino]carbonyl]phenyl]ethyl]4-hydroxy-]
inhibition at 1 µM [1]: < 10%
inhibition at 10 µM [2]: 11.2%
inhibition at 100 µM [3]: 77.4%

CC(c1cccc(C(=O)NCc2nc3ccccc3[nH]2)c1)c1c(O)c2ccccc2oc1=O (stereo not shown) [Example 26, Coumarin, 3-[1-[3-[[[(2-benzimidazo131)methyl]amino]carbonyl]phenyl]ethyl]-4-hydroxy]
IC50: 20.3 µM
HIV-1 Protease % Inhib (dose 100.000 uM): 80%
inhibition at 1 µM [1]: < 10%
inhibition at 10 µM [2]: 53.6%
inhibition at 100 µM [3]: 95%

C=CCOc1cccc(C(CC)c2c(O)c3ccccc3oc2=O)c1 (stereo not shown) [Example 67, 3-(1'-(3-Allyloxyphenyl)propyl)-4-hydroxycoumarin]
inhibition at 1 µM [1]: < 10%
inhibition at 10 µM [2]: 11.7%
inhibition at 100 µM [3]: 60.9%

CC(C)(C)OC(=O)N1CCC[C@H]1C(=O)Nc1cccc(C(c2c(O)c3c(oc2=O)CCCCCC3)C2CC2)c1 (stereo partly drawn) [Example 202, 1-(S)-Pyrrolidinecarboxylic acid, 2-[[[3-[cyclopropyl(5,6,7,8,9,10-hexahydro-4-hydroxy-2-oxo-2H-cycloocta[b]pyran-3-yl)methyl]phenyl]amino]carbonyl]-, 1,1-dimethylethyl ester]
inhibition at 0.123 µM: 20.1%
inhibition at 0.37 µM: 48.1%
inhibition at 1.1 µM [4]: 73.1%
inhibition at 3.3 µM [5]: 88.1%
inhibition at 10 µM [2]: 93.8%
inhibition at 30 µM [6]: 94.4%

O=c1oc2c(c(O)c1C(c1cccc(NS(=O)(=O)c3ccc(F)cc3F)c1)C1CC1)CCCCCC2 (stereo not shown) [Example 279, N-[3-[Cyclopropyl(5,6,7,8,9,10-hexahydro-4-hydroxy-2-oxo-2H-cycloocta[b]pyran-3-yl)methyl]phenyl]-2,4-difluoro-benzenesulfonamide]
inhibition at 0.123 µM: 78.2%
inhibition at 0.37 µM: 97.3%
inhibition at 1.1 µM [4]: 105%
inhibition at 3.3 µM [5]: 103%
inhibition at 10 µM [2]: 109%
inhibition at 30 µM [6]: 94.8%

COCCC1CCCCc2c1oc(=O)c(C(c1ccccc1)C1CC1)c2O (stereo not shown) [Example 193, 3-(Cyclopropylphenylmethyl)-6,7,8,9-tetrahydro-4-hydroxy-9-(methoxyethyl)-cyclohepta[b]pyran-2(5H)-one]
inhibition at 1.1 µM [7]: 35%
inhibition at 3.3 µM [8]: 70.4%
inhibition at 10 µM [9]: 97.7%
inhibition at 30 µM [10]: 105%

O=c1oc2c(c(O)c1C(c1ccccc1)C1CC1)CCC2 (stereo not shown) [Example 113, 3-(Cyclopropylphenylmethyl)-6,7-dihydro-4-hydroxy-cyclopenta[b]pyran-2(5H)-one]
inhibition at 1 µM (dose 1.000 uM, read-out: HIV-1 Protease % Inhib): 39.6%
inhibition at 10 µM [9]: 99.8%
inhibition at 100 µM (dose 100.000 uM, read-out: HIV-1 Protease % Inhib): 109%

CCC(c1cccc(NC(=O)CCCNC(=O)OC(C)(C)C)c1)c1c(O)c2ccccc2oc1=O (stereo not shown) [Example 50, Coumarin, 4-hydroxy-3-[1-[3-[[4-[(1,1-dimethylethoxycarbonyl)amino]-1-oxobutyl]amino]phenyl]propyl]-]
IC50: 2.3 µM
inhibition at 1 µM [1]: 33.5%
inhibition at 10 µM [2]: 80.3%
inhibition at 100 µM [3]: 95.5%

CCCc1ccc(S(=O)(=O)Nc2cccc(C(c3c(O)c4c(oc3=O)CCCCCC4)C3CC3)c2)cc1 (stereo not shown) [Example 342, N-[3-[Cyclopropyl(5,6,7,8,9,10-hexahydro-4-hydroxy-2-oxo-2H-cycloocta[b]pyran-3-yl)methyl]phenyl]4-propyl-benzenesulfonamide]
inhibition at 0.123 µM: 42%
inhibition at 0.37 µM: 72.9%
inhibition at 1.1 µM [4]: 88.2%
inhibition at 3.3 µM [5]: 87.8%
inhibition at 10 µM [2]: 108%
inhibition at 30 µM [6]: 105%

CCC(c1ccccc1)c1c(O)c2cc(F)ccc2oc1=O (stereo not shown) [Example 87, Coumarin, 6-fluoro-4-hydroxy-3-(1-phenylpropyl)-]
inhibition at 1 µM [1]: < 10%
inhibition at 10 µM [2]: 20.6%
inhibition at 100 µM [3]: 79%

CCOC(=O)C(CC)c1c(O)c2ccccc2oc1=O (stereo not shown) [Example 83, Butanoic acid, 2-(4-hydroxy-2-oxo-2H-1-benzopyran-3-yl)-, ethyl ester]
inhibition at 1 µM [1]: < 10%
inhibition at 10 µM [2]: < 10%
inhibition at 100 µM [3]: 50.1%

Cn1cnc(S(=O)(=O)Nc2ccc(C(c3c(O)c4c(oc3=O)CCCCCC4)C3CC3)cc2)c1 (stereo not shown) [Example 476, N-[4-[Cyclopropyl (5,6,7,8,9,10-hexahydro-4-hydroxy-2-oxo-2H-cycloocta[b]pyran-3-yl)methyl]phenyl]-1-methyl-1H-imidazole-4-sulfonamide]
inhibition at 1.1 µM [7]: 19.5%
inhibition at 3.3 µM [8]: 53.1%
inhibition at 10 µM [9]: 83%
inhibition at 30 µM [10]: 83.1%

CCC(c1ccc(OCC(O)CO)cc1)c1c(O)c2ccccc2oc1=O (stereo not shown) [Example 100, Coumarin, 4-hydroxy-3-[1-[4-(2,3-dihydroxy)propoxyphenyl]propyl]-]
HIV-1 Protease % Inhib (dose 10.000 uM): < 10%
HIV-1 Protease % Inhib (dose 100.000 uM): 40.3%
inhibition at 1 µM [1]: < 10%
inhibition at 10 µM [2]: 12.3%
inhibition at 100 µM [3]: 53%

Cc1cc(C)c(S(=O)(=O)Nc2cccc(C(c3c(O)c4c(oc3=O)CCCCCC4)C3CC3)c2)c(C)c1 (stereo not shown) [Example 277, N-[3-[Cyclopropyl(5,6,7,8,9,10-hexahydro-4-hydroxy-2-oxo-2H-cycloocta[b]pyran-3-yl)methyl]phenyl]-2,4,6-trimethyl-benzenesulfonamide]
inhibition at 3.3 µM [8]: 37.9%
inhibition at 10 µM [9]: 79.9%
inhibition at 30 µM [10]: 94.1%

O=C(Nc1cccc(C(c2c(O)c3c(oc2=O)CCCCCC3)C2CC2)c1)Oc1ccccc1 (stereo not shown) [Example 225, [3-[Cyclopropyl(5,6,7,8,9,10-hexahydro-4-hydroxy-2-oxo-2H-cycloocta[b]pyran-3-yl)methyl]phenyl]-, phenyl ester carbamic acid]
inhibition at 1.1 µM [4]: 14.9%
inhibition at 3.3 µM [5]: 47%
inhibition at 10 µM [2]: 77.2%
inhibition at 30 µM [6]: 91.7%

COc1ccc2c(c1)CCCC2c1c(O)c2ccccc2oc1=O (stereo not shown) [Example 76, 4-Hydroxy-3-(1-(6-methoxy)-1,2,3,4-tetrahydronaphthyl)-coumarin]
inhibition at 1 µM [1]: < 10%
inhibition at 10 µM [2]: 47.8%
inhibition at 100 µM [3]: 96.5%

O=c1oc2c(c(O)c1C(c1ccccc1)C1CC1)CCCCCC2CO (stereo not shown) [Example 173, 3-(Cyclopropylphenylmethyl)-5,6,7,8,9,10-hexahydro-4-hydroxy-10-(hydroxymethyl)-2H-cycloocta[b]pyran-2-one]
inhibition at 1.1 µM [7]: 15%
inhibition at 3.3 µM [8]: 36.5%
inhibition at 10 µM [9]: 76.7%
inhibition at 30 µM [10]: 97.2%

CCC(c1cccc(C(=O)NCc2nc3ccccc3[nH]2)c1)c1c(O)c2ccccc2oc1=O (stereo not shown) [Example 148, N-(1H-Benzoimidazol-2-ylmethyl)-3-(1-(4-hydroxy-2-oxo-2H-chromen-3-yl)-propyl)-benzamide]
inhibition at 1 µM [1]: < 10%
inhibition at 10 µM [2]: 57.9%
inhibition at 100 µM [3]: 93.7%
